# Measured values from BigSolDB 2.1.
smiles,measurement,setting,value
Cc1cnc(NC(=O)C2=C(O)c3ccccc3S(=O)(=O)N2C)s1,solubility (mole fraction),"in DMF, 293.15 K",0.0117
same,solubility (mole fraction),"in DMF, 298.15 K",0.0128
same,solubility (mole fraction),"in DMF, 303.15 K",0.0139
same,solubility (mole fraction),"in DMF, 308.15 K",0.0153
same,solubility (mole fraction),"in DMF, 313.15 K",0.0163
same,solubility (mole fraction),"in formamide, 293.15 K",0.00069
same,solubility (mole fraction),"in formamide, 298.15 K",0.000749
same,solubility (mole fraction),"in formamide, 303.15 K",0.000802
same,solubility (mole fraction),"in formamide, 308.15 K",0.000872
same,solubility (mole fraction),"in formamide, 313.15 K",0.000927
same,solubility (mole fraction),"in n-methylformamide, 293.15 K",0.00149
same,solubility (mole fraction),"in n-methylformamide, 298.15 K",0.00159
same,solubility (mole fraction),"in n-methylformamide, 303.15 K",0.00169
same,solubility (mole fraction),"in n-methylformamide, 308.15 K",0.00182
same,solubility (mole fraction),"in n-methylformamide, 313.15 K",0.00191
